This passage reports IC50, Complex formation and ID50 results from ChEMBL document CHEMBL1125804, “Antitumor agents. 120. New 4-substituted benzylamine and benzyl ether derivatives of 4'-O-demethylepipodophyllotoxin as potent inhibitors of human DNA topoisomerase II” (1991).

Experiment [1] is described as follows: 50% reduction in KB cell number after a 3-day incubation. The format is functional. The settings on record: Homo sapiens, 72 h, read-out: ID50 (the source's name).
Experiment [2] concerns Nucleic Acid. In words: % complex formation of cellular protein -DNA complex at a concentration of 10 uM. The format is functional. The following applies: Homo sapiens.
Experiment [3] deals with DNA topoisomerase II (Homo sapiens) (UniProt P11388+Q02880). In words: Inhibition of human DNA topoisomerase II. The format is protein assay.
The nature of experiment [4]: Compound was tested for the concentration to afford 50% reduction in KB cell number after a 3-day incubation. The format is functional. The settings on record: Homo sapiens, 72 h, read-out: ID50 (the source's name).
Experiment [5] has as its system Nucleic Acid. In words: Compound was tested for the % complex formation of cellular protein -DNA complex at a concentration of 10 uM. The format is functional. The following applies: Homo sapiens.

For `COc1cc([C@@H]2c3cc4c(cc3[C@@H](NCc3ccc(F)cc3)[C@H]3COC(=O)[C@H]23)OCO4)cc(OC)c1O`, in experiment [1], the IC50 is greater than 4 µM. Also, the Complex formation in experiment [2] stood at 169%. Besides, in experiment [3], the ID50 worked out at 50 µM.

As for `COc1cc([C@@H]2c3cc4c(cc3[C@@H](NCc3ccc([N+](=O)[O-])cc3)[C@H]3COC(=O)[C@H]23)OCO4)cc(OC)c1O`, the IC50 in experiment [1] is 0.4 µM. Further, the Complex formation in experiment [2] is 216%. For the same compound, the ID50 in experiment [3] was 50 µM.

As to `COc1cc([C@@H]2c3cc4c(cc3[C@@H](NCc3ccccc3N)[C@H]3COC(=O)[C@H]23)OCO4)cc(OC)c1O`, the IC50 in experiment [1] is less than 0.4 µM. The compound further returned a Complex formation in experiment [2] of 184%. In experiment [3], this compound displayed an ID50 of 25 µM.

For `COc1cc([C@@H]2c3cc4c(cc3[C@@H](NCc3cccc(F)c3)[C@H]3COC(=O)[C@H]23)OCO4)cc(OC)c1O`, the IC50 in experiment [1] stood at 3 µM. This compound yielded a Complex formation in experiment [2] of 216%. The compound further came in with an ID50 in experiment [3] of 25 µM.

Turning to `COc1cc([C@@H]2c3cc4c(cc3[C@@H](NCc3cccc(N)c3)[C@H]3COC(=O)[C@H]23)OCO4)cc(OC)c1O`, the IC50 in experiment [1] was less than 0.4 µM. In experiment [2], the Complex formation came out at 191%. Further, the ID50 in experiment [3] stood at 25 µM.

`COc1cc([C@@H]2c3cc4c(cc3[C@@H](Nc3ccc([N+](=O)[O-])cc3)[C@H]3COC(=O)[C@H]23)OCO4)cc(OC)c1O`: the IC50 in experiment [4] was determined as 0.49 µM. Further, the Complex formation in experiment [5] stood at 323%.

`COc1cc([C@@H]2c3cc4c(cc3[C@@H](NCc3ccc(C#N)cc3)[C@H]3COC(=O)[C@H]23)OCO4)cc(OC)c1O`: the IC50 in experiment [1] was less than 0.4 µM. Besides, in experiment [2], the Complex formation came out at 284%. In experiment [3], this compound had an ID50 of 25 µM.

Turning to `COc1cc([C@@H]2c3cc4c(cc3[C@@H](NCc3ccccc3)[C@H]3COC(=O)[C@H]23)OCO4)cc(OC)c1O`, the IC50 in experiment [1] came out at 2.2 µM. Further, the Complex formation in experiment [2] came to 181%. In addition, the ID50 in experiment [3] is 25 µM.

Turning to `COc1cc([C@@H]2c3cc4c(cc3[C@@H](O[C@@H]3O[C@@H]5CO[C@@H](C)O[C@H]5[C@H](O)[C@H]3O)[C@H]3COC(=O)[C@H]23)OCO4)cc(OC)c1O` [ETOPOSIDE], the IC50 in experiment [1] came to 0.2 µM. The compound also returned a Complex formation in experiment [5] of 100%.

Regarding `COc1cc([C@@H]2c3cc4c(cc3[C@@H](OCc3ccc([N+](=O)[O-])cc3)[C@H]3COC(=O)[C@H]23)OCO4)cc(OC)c1O`, the IC50 in experiment [1] was 1.9 µM. In experiment [2], the Complex formation is less than 25%. In experiment [3], the ID50 was greater than 100 µM.

With `COc1cc([C@@H]2c3cc4c(cc3[C@@H](NCc3cccc([N+](=O)[O-])c3)[C@H]3COC(=O)[C@H]23)OCO4)cc(OC)c1O`, in experiment [1], the IC50 was less than 0.4 µM. In experiment [2], this compound had a Complex formation of 130%. The compound also registered an ID50 in experiment [3] of 25 µM.

As for `COc1cc([C@@H]2c3cc4c(cc3[C@@H](OCc3ccccc3)[C@H]3COC(=O)[C@H]23)OCO4)cc(OC)c1O`, the IC50 in experiment [1] was found to be 2.4 µM. In experiment [2], the Complex formation was less than 25%. The compound further had an ID50 in experiment [3] greater than 100 µM.

With `COc1cc([C@@H]2c3cc4c(cc3[C@@H](NCc3ccccc3F)[C@H]3COC(=O)[C@H]23)OCO4)cc(OC)c1O`, the IC50 in experiment [1] was 1.9 µM. The compound also returned a Complex formation in experiment [2] of 126%. Besides, the ID50 in experiment [3] worked out at 100 µM.

With `COc1cc([C@@H]2c3cc4c(cc3[C@@H](Nc3ccc(N)cc3)[C@H]3COC(=O)[C@H]23)OCO4)cc(OC)c1O`, the IC50 in experiment [1] worked out at 0.8 µM. This compound gave a Complex formation in experiment [2] of 330%.

Consider `COc1cc([C@@H]2c3cc4c(cc3[C@@H](NCc3ccc(C(F)(F)F)cc3)[C@H]3COC(=O)[C@H]23)OCO4)cc(OC)c1O`, for which the IC50 in experiment [1] turned out to be 2.3 µM. In experiment [2], the Complex formation worked out at 99%. In addition, the ID50 in experiment [3] came out at 100 µM.

`COc1cc([C@@H]2c3cc4c(cc3[C@@H](NCc3ccccc3[N+](=O)[O-])[C@H]3COC(=O)[C@H]23)OCO4)cc(OC)c1O`: the IC50 in experiment [1] was 1.8 µM. For the same compound, the Complex formation in experiment [2] stood at 144%. For the same compound, the ID50 in experiment [3] came to 50 µM.

`COc1cc([C@@H]2c3cc4c(cc3[C@@H](Nc3ccc(F)cc3)[C@H]3COC(=O)[C@H]23)OCO4)cc(OC)c1O`: the IC50 in experiment [1] came to 0.24 µM. Further, in experiment [2], the Complex formation was found to be 213%.

For `COc1cc(CN[C@@H]2c3cc4c(cc3[C@@H](c3cc(OC)c(O)c(OC)c3)[C@H]3C(=O)OC[C@@H]32)OCO4)cc(OC)c1`, the IC50 in experiment [1] worked out at 1.7 µM. In experiment [2], the Complex formation amounted to 144%. The compound further had an ID50 in experiment [3] of 100 µM.

For `COc1cc([C@@H]2c3cc4c(cc3[C@@H](NCc3cccc(C#N)c3)[C@H]3COC(=O)[C@H]23)OCO4)cc(OC)c1O`, the IC50 in experiment [1] is less than 0.4 µM. In experiment [2], this compound registered a Complex formation of 225%. The same compound yielded an ID50 in experiment [3] of 25 µM.

Take `COc1cc([C@@H]2c3cc4c(cc3[C@@H](NCc3cccc(Cl)c3)[C@H]3COC(=O)[C@H]23)OCO4)cc(OC)c1O`: the IC50 in experiment [1] is 1.2 µM. The compound further had a Complex formation in experiment [2] of 159%. The compound also returned an ID50 in experiment [3] of 50 µM.
